Test system: subjects with moderately to severely active RA who have an inadequate response to methotrexate (MTX)
Assay: Study 1 (add-on to MTX) - ACR responses (ACR20/50/70)
Type: in vivo, human
Source text: The terms “ACR20”, “ACR50” and “ACR70” as used herein are scores which indicate how much a patient's rheumatoid arthritis has improved according to criteria set out by the American College of Rheumatology (ACR). The ACR score represents a percentage. An ACR20 score means that a person's RA has improved by 20%, an ACR50 score means it has improved by 50%, and an ACR70 score means it has improved by 70%. Specifically, to qualify for an ACR20 score, a person with RA must have at least 20% fewer tender joints and at least 20% fewer swollen joints. In addition the patient must show a 20% improvement in at least three of the following five areas: the person's overall (global) assessment of his or her own RA, the physician's global assessment of the person's RA, the person's assessment of his or her own pain, the person's assessment of his or her own physical functioning, and the results of an erythrocyte sedimentation rate or C-reactive protein (CRP) blood test (both of which test for inflammation). ACR50 and ACR70 scores use the same criteria but require 50% and 70% improvement, respectively, (Felson et al., 1993). In the data presented herein the CRP blood test is used.
Double-blind, placebo-controlled add on study in subjects with moderately to severely active RA who have an inadequate response to methotrexate (MTX) (oral or parenteral).
595 subjects randomized to one of 6 dose regimens of Compound 1 (dosed as [Compound 1:HCl:3H2O]) (3 dose levels administered either once or twice daily) or placebo on top of each subject's stable dose of MTX.
Compound 1 (dosed as [Compound 1:HCl:3H2O]) is dosed for twelve weeks once daily (q.d.) (50 mg, 100 mg or 200 mg) or twice daily (b.i.d.) (25 mg, 50 mg or 100 mg); or placebo.
At Week 12, the subjects on placebo who have not achieved 20% improvement in swollen joint count (SJC66) and tender joint count (TJC68) are re-randomized automatically to receive Compound 1 (dosed as a [Compound 1:HCl:3H2O]) either at 100 mg q.d. or 50 mg b.i.d. doses in a blinded fashion; subjects on 50 mg q.d. who have not achieved 20% improvement in SJC66 and TJC68 will be assigned to 100 mg q.d. and subjects on 25 mg b.i.d. that have not achieved a 20% improvement in SJC66 and TJC68 will be assigned to 50 mg b.i.d. Subjects who switch treatment at week 12 are handled as if they discontinued at week 12 for the purpose of statistical analysis, whereas subjects in the other groups will maintain their randomized treatment until Week 24.
The American College of Rheumatology (ACR) composite score, which evaluates clinical improvement relative to an initial assessment, is a commonly accepted efficacy end point for clinical trials in patients with rheumatoid arthritis. The ACR score correspond to a percentage improvement in pre-set parameters, and therefore measures the evolution of the disease in a patient. For example, ACR20 denotes at least 20% improvement in tender and swollen joint counts and in three of the following end points: global assessment by the patient, global assessment by the doctor, C reactive protein (CRP), patient's pain Visual Analogue Scale and Health Assessment Questionnaire Score. The number of swollen joints, ESR and CRP correlate with radiographic progression of joint damage, whereas tender joint counts, as well as global assessments by doctors and patients, and patients' reports of pain, are sensitive to change in clinical outcomes. Physical function, as assessed by the Health Assessment Questionnaire Score, is a potent predictor of the risk of disability in rheumatoid arthritis (Felson and American College of Rheumatology Committee to Reevaluate Improvement Criteria, 2007; Felson et al., 1993).
In particular, the list of parameters used to assess ACR score can be found in the Table XCVI below and the results of the ACR responses at week 12 via either NRI or LOCF are shown in the tables below. The Hommel-corrected p-value for the pairwise comparisons of each group with placebo is shown. […]

[1] = 100 mg q.d., week 12, 12 weeks results
[2] = 100 mg q.d., week 12, 24 weeks results
[3] = 100 mg q.d., week 16, 24 weeks results
[4] = 100 mg q.d., week 20, 24 weeks results
[5] = 100 mg q.d., week 24, 24 weeks results
[6] = 100 mg q.d., at week 1, 12 weeks results
[7] = 100 mg q.d., at week 1, 24 weeks results
[8] = 100 mg q.d., week 8, 12 weeks results
[9] = 200 mg q.d., week 2, 12 weeks results
[10] = 200 mg q.d., week 2, 24 weeks results
[11] = 200 mg q.d., week 4, 12 weeks results
[12] = 200 mg q.d., week 4, 24 weeks results
[13] = 200 mg q.d., week 8, 24 weeks results
[14] = 200 mg q.d., week 12, 12 weeks results
[15] = 200 mg q.d., week 12, 24 weeks results
[16] = 200 mg q.d., week 16, 24 weeks results
[17] = 200 mg q.d., week 20, 24 weeks results
[18] = 200 mg q.d., week 24, 24 weeks results
[19] = 200 mg q.d., at week 1, 12 weeks results
[20] = 200 mg q.d., at week 1, 24 weeks results
[21] = 200 mg q.d., week 8, 12 weeks results

For `O=C(Nc1nc2cccc(-c3ccc(CN4CCS(=O)(=O)CC4)cc3)n2n1)C1CC1` [Compound 1, cyclopropanecarboxylic acid {5-[4-(1,1-dioxo-thiomorpholin-4-ylmethyl)-phenyl]-[1,2,4]triazolo[1,5-a]pyridin-2-yl}-amide], the “ACR70 (LOCF)” value [1] was 22.4%, the “ACR70 (NRI)” value [1] was 20.0% and the “ACR20 (LOCF)” value [2] was 67.1%. For the same compound, the “ACR20 (NRI)” value [2] was 62.4%, the “ACR50 (LOCF)” value [2] was 41.2% and the “ACR50 (NRI)” value [2] was 38.8%. For the same compound, the “ACR70 (LOCF)” value [2] was 22.4%, the “ACR70 (NRI)” value [2] was 20.0% and the “ACR20 (LOCF)” value [3] was 69.4%. For the same compound, the “ACR20 (NRI)” value [3] was 64.7%, the “ACR50 (LOCF)” value [3] was 55.3% and the “ACR70 (LOCF)” value [3] was 27.1%. For the same compound, the “ACR20 (LOCF)” value [4] was 76.5%, the “ACR20 (NRI)” value [4] was 69.4% and the “ACR50 (LOCF)” value [4] was 50.6%. For the same compound, the “ACR70 (LOCF)” value [4] was 32.9%, the “ACR20 (LOCF)” value [5] was 72.9% and the “ACR20 (NRI)” value [5] was 60.0%. The “ACR50 (LOCF)” value [5] was 54.1%, the “ACR70 (LOCF)” value [5] was 37.6% and the “ACR20 (LOCF)” value [6] was 32.9%. For the same compound, the “ACR20 (NRI)” value [6] was 34.1%, the “ACR50 (LOCF)” value [6] was 5.9% and the “ACR50 (NRI)” value [6] was 5.9%. For the same compound, the “ACR70 (LOCF)” value [6] was 0.0%, the “ACR70 (NRI)” value [6] was 0.0% and the “ACR20 (LOCF)” value [7] was 34.1%. The “ACR20 (NRI)” value [7] was 34.1%, the “ACR50 (LOCF)” value [7] was 5.9% and the “ACR50 (NRI)” value [7] was 5.9%. For the same compound, the “ACR70 (LOCF)” value [7] was 0.0%, the “ACR70 (NRI)” value [7] was 0.00% and the “ACR20 (LOCF)” value [8] was 63.5%. The “ACR20 (NRI)” value [8] was 63.5%, the “ACR50 (LOCF)” value [8] was 35.3% and the “ACR50 (NRI)” value [8] was 34.1%. For the same compound, the “ACR70 (LOCF)” value [8] was 23.5%, the “ACR70 (NRI)” value [8] was 22.4% and the “ACR20 (LOCF)” value [9] was 48.8%. For the same compound, the “ACR20 (NRI)” value [9] was 48.8%, the “ACR50 (LOCF)” value [9] was 11.6% and the “ACR50 (NRI)” value [9] was 11.6%. For the same compound, the “ACR70 (LOCF)” value [9] was 5.8%, the “ACR70 (NRI)” value [9] was 5.8% and the “ACR20 (LOCF)” value [10] was 48.8%. The “ACR20 (NRI)” value [10] was 48.8%, the “ACR50 (LOCF)” value [10] was 11.6% and the “ACR50 (NRI)” value [10] was 11.6%. For the same compound, the “ACR70 (LOCF)” value [10] was 5.8%, the “ACR70 (NRI)” value [10] was 5.8% and the “ACR20 (LOCF)” value [11] was 55.8%. The “ACR20 (NRI)” value [11] was 55.8%, the “ACR50 (LOCF)” value [11] was 16.3% and the “ACR50 (NRI)” value [11] was 17.4%. For the same compound, the “ACR70 (LOCF)” value [11] was 4.7%, the “ACR70 (NRI)” value [11] was 4.7% and the “ACR20 (LOCF)” value [12] was 55.8%. For the same compound, the “ACR20 (NRI)” value [12] was 55.8%, the “ACR50 (LOCF)” value [12] was 17.4% and the “ACR50 (NRI)” value [12] was 17.4%. For the same compound, the “ACR70 (LOCF)” value [12] was 4.7%, the “ACR70 (NRI)” value [12] was 4.7% and the “ACR20 (LOCF)” value [13] was 69.8%. For the same compound, the “ACR20 (NRI)” value [13] was 69.8%, the “ACR50 (LOCF)” value [13] was 34.9% and the “ACR50 (NRI)” value [13] was 34.9%. For the same compound, the “ACR70 (LOCF)” value [13] was 18.6%, the “ACR70 (NRI)” value [13] was 18.6% and the “ACR20 (LOCF)” value [14] was 70.9%. For the same compound, the “ACR20 (NRI)” value [14] was 68.6%, the “ACR50 (LOCF)” value [14] was 44.2% and the “ACR50 (NRI)” value [14] was 43.0%. For the same compound, the “ACR70 (LOCF)” value [14] was 24.4%, the “ACR70 (NRI)” value [14] was 24.4% and the “ACR20 (LOCF)” value [15] was 70.9%. The “ACR20 (NRI)” value [15] was 69.8%, the “ACR50 (LOCF)” value [15] was 44.2% and the “ACR50 (NRI)” value [15] was 43.0%. For the same compound, the “ACR70 (LOCF)” value [15] was 24.4%, the “ACR70 (NRI)” value [15] was 24.4% and the “ACR20 (LOCF)” value [16] was 74.4%. For the same compound, the “ACR20 (NRI)” value [16] was 73.3%, the “ACR50 (LOCF)” value [16] was 50.0% and the “ACR70 (LOCF)” value [16] was 26.7%. For the same compound, the “ACR20 (LOCF)” value [17] was 76.7%, the “ACR20 (NRI)” value [17] was 73.3% and the “ACR50 (LOCF)” value [17] was 54.7%. The “ACR70 (LOCF)” value [17] was 24.4%, the “ACR20 (LOCF)” value [18] was 77.9% and the “ACR20 (NRI)” value [18] was 73.3%. The “ACR50 (LOCF)” value [18] was 54.7%, the “ACR70 (LOCF)” value [18] was 31.4% and the “ACR20 (LOCF)” value [19] was 25.6%. For the same compound, the “ACR20 (NRI)” value [19] was 27.9%, the “ACR50 (LOCF)” value [19] was 4.7% and the “ACR50 (NRI)” value [19] was 4.7%. For the same compound, the “ACR70 (LOCF)” value [19] was 1.2%, the “ACR70 (NRI)” value [19] was 1.2% and the “ACR20 (LOCF)” value [20] was 27.9%. For the same compound, the “ACR20 (NRI)” value [20] was 27.9%, the “ACR50 (LOCF)” value [20] was 4.7% and the “ACR50 (NRI)” value [20] was 4.7%. For the same compound, the “ACR70 (LOCF)” value [20] was 1.2%, the “ACR70 (NRI)” value [20] was 1.2% and the “ACR20 (LOCF)” value [21] was 68.6%. The “ACR20 (NRI)” value [21] was 68.6%, the “ACR50 (LOCF)” value [21] was 33.7% and the “ACR50 (NRI)” value [21] was 33.7%. The “ACR70 (LOCF)” value [21] was 18.6%.

— patent US20180200257A1, “METHODS FOR THE TREATMENT OF INFLAMMATORY DISORDERS” (Galapagos NV, priority 2015, published 2018)
